Test results reported in patent publication US20060233705A1, “Diagnosis by determination of hyperactivity or increased expression of members of cell signaling pathways” (priority 2005, published 2006).

Experiments:
[1] = tested on: members of the MAPK and GPCR pathways; test: ELISA of venous blood for MAPK and GPCR pathway members in NNK-treated hamsters; format: in vivo, Syrian Golden Hamsters; details: blood one week after NNK 2.5 mg/100 g s.c. three times weekly for 10 weeks
Experimental: Syrian Golden Hamsters are injected subcutaneously with the tobacco-specific carcinogenic nitrosamine 4-(methylnitrosamino)-1-(3-pyridyl)-1-butanone (NNK) at a dosage of 2.5 mg/100 g bodyweight three times weekly for 10 weeks. […] Control hamsters are untreated. One week after the final NNK injection, approximately 250 microliters of venous blood is collected from the hamsters.
Antibodies that bind to phosphorylated or unphosphorylated members of the MAPK and GPCR pathways, including Raf, Ras, MEK, ERK, adenylate cyclase, cAMP, PKA, CREB, and PKC are purchased from commercial sources, including EMD Biosciences (San Diego, Calif.) (Raf, ERK), BD Biosciences Pharmingen (San Diego, Calif.) (Raf), Cell Signaling Technology (Beverly, Mass.) (Ras), Abgent (San Diego, Calif.) ([…]), GenWay Biotech Inc. (San Diego, Calif.) (adenylate cyclase), Abcam, Inc. (Cambridge, Mass.) (cAMP, PKA, PKC, Raf), and Upstate (Charlottesville, Va.) (CREB).
Paired antibodies for each of the above member of the MAPK and GPCR pathways are utilized as coating antibody and detection antibody in formulating an ELISA (Enzyme-Linked Immunosorbent Assay) for each of the members. […]
Briefly, a first antibody that binds to a member of the MAPK or GPCR pathway is bound to the wells on a microtiter plate. […] Then a stop solution is added to the wells and the color intensity of each well is measured using an ELISA plate reader.

[2] = tested on: human pulmonary adenocarcinoma cells; details: in vitro; by increasing the release of arachidonic acid; cited from earlier work
[3] = tested on: pulmonary adenocarcinomas; details: animal model; cited from earlier work
[4] = tested on: lung tumors; details: 2.5 mg/100 g s.c. three times weekly for 20 weeks; within 52 weeks after start of injections; cited from earlier work

SMILES	ELISA color intensity versus control hamsters [1]	proliferation of human pulmonary adenocarcinoma cells [2]	induction of pulmonary adenocarcinomas [3]	lung tumors developed [4]
CN(CCCC(=O)c1cccnc1)N=O [NNK, 4-(methylnitrosamino)-1-(3-pyridyl)-1-butanone]	significantly higher	stimulate the proliferation	reproducibly induced pulmonary adenocarcinomas	about 10 lung tumors/hamster
CC(C)NCC(O)c1ccc(O)c(O)c1 (centres unmarked) [isoproterenol]	–	stimulate the proliferation	–	–
